Measured values taken from PubChem BioAssay (NCI).
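Where inhibition never reached the appropriate level, the endpoint shown equals the highest concentration tested. Otherwise, values were interpolated linearly from a five-concentration, 48-hour dose response in 96-well plates. TGI denotes the concentration required for complete inhibition of growth.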

How the values were obtained:
Assay in all cases: NCI tumour cell line growth inhibition, 48 h
UO-31 renal = test system: UO-31 renal
OVCAR-8 ovarian = test system: OVCAR-8 ovarian
HCT-15 colon = test system: HCT-15 colon
MDA-MB-435 = test system: MDA-MB-435
COLO 205 colon = test system: COLO 205 colon
A549 NSCLC = test system: A549 NSCLC
IGROV1 ovarian = test system: IGROV1 ovarian
NCI-H522 lung = test system: NCI-H522 lung
NCI-H226 lung = test system: NCI-H226 lung
SK-OV-3 ovarian = test system: SK-OV-3 ovarian
HCC-2998 colon = test system: HCC-2998 colon
SK-MEL-2 melanoma = test system: SK-MEL-2 melanoma
HS 578T breast = test system: HS 578T breast
K-562 leukemia = test system: K-562 leukemia
SW-620 colon = test system: SW-620 colon
KM12 colon = test system: KM12 colon
LOX IMVI melanoma = test system: LOX IMVI melanoma
CCRF-CEM leukemia = test system: CCRF-CEM leukemia
CAKI-1 renal = test system: CAKI-1 renal
UACC-62 melanoma = test system: UACC-62 melanoma
MDA-N = test system: MDA-N
U251 CNS = test system: U251 CNS
NCI-H23 lung = test system: NCI-H23 lung
HT29 colon = test system: HT29 colon
DU-145 prostate = test system: DU-145 prostate
TK-10 renal = test system: TK-10 renal
RXF 393 renal = test system: RXF 393 renal
OVCAR-3 ovarian = test system: OVCAR-3 ovarian
SR leukemia = test system: SR leukemia
BT-549 breast = test system: BT-549 breast
RPMI-8226 leukemia = test system: RPMI-8226 leukemia
SK-MEL-28 melanoma = test system: SK-MEL-28 melanoma
HL-60(TB) leukemia = test system: HL-60(TB) leukemia
OVCAR-4 ovarian = test system: OVCAR-4 ovarian
SF-539 CNS = test system: SF-539 CNS
SNB-19 CNS = test system: SNB-19 CNS
HOP-62 NSCLC = test system: HOP-62 NSCLC
EKVX NSCLC = test system: EKVX NSCLC
MCF7 breast = test system: MCF7 breast
MDA-MB-231 breast = test system: MDA-MB-231 breast
ACHN renal = test system: ACHN renal
MOLT-4 leukemia = test system: MOLT-4 leukemia
SNB-75 CNS = test system: SNB-75 CNS
MALME-3M melanoma = test system: MALME-3M melanoma
HCT-116 colon = test system: HCT-116 colon
NCI/ADR-RES ovarian = test system: NCI/ADR-RES ovarian
SF-295 CNS = test system: SF-295 CNS
M14 melanoma = test system: M14 melanoma
SK-MEL-5 melanoma = test system: SK-MEL-5 melanoma
786-0 renal = test system: 786-0 renal
OVCAR-5 ovarian = test system: OVCAR-5 ovarian
UACC-257 melanoma = test system: UACC-257 melanoma
PC-3 prostate = test system: PC-3 prostate
T-47D breast = test system: T-47D breast
SF-268 CNS = test system: SF-268 CNS
HOP-92 NSCLC = test system: HOP-92 NSCLC
SN12C renal = test system: SN12C renal
A498 renal = test system: A498 renal
NCI-H460 lung = test system: NCI-H460 lung
M19-MEL melanoma = test system: M19-MEL melanoma
DLD-1 colon = test system: DLD-1 colon
LXFL 529 NSCLC = test system: LXFL 529 NSCLC
KM20L2 colon = test system: KM20L2 colon
DMS 273 small cell lung = test system: DMS 273 small cell lung
SNB-78 CNS = test system: SNB-78 CNS
DMS 114 small cell lung = test system: DMS 114 small cell lung

With `Oc1c(C(Nc2ccccn2)c2ccccc2)ccc2cccnc12` (stereo unspecified) the TGI (UO-31 renal) was 41.4 µM, the TGI (OVCAR-8 ovarian) was 23.7 µM and the TGI (HCT-15 colon) was > 100 µM. The TGI (MDA-MB-435) was > 100 µM, the TGI (COLO 205 colon) was 65.9 µM and the TGI (A549 NSCLC) was > 100 µM. It also gave a TGI (IGROV1 ovarian) of 16.3 µM, a TGI (NCI-H522 lung) of 11.8 µM and a TGI (NCI-H226 lung) of 7.54 µM. The TGI (SK-OV-3 ovarian) was 63.8 µM, the TGI (HCC-2998 colon) was > 100 µM and the TGI (SK-MEL-2 melanoma) was > 28.4 µM. For the same compound, the TGI (HS 578T breast) was > 87.9 µM, the TGI (K-562 leukemia) was 24.9 µM and the TGI (SW-620 colon) was > 100 µM. The TGI (KM12 colon) was > 100 µM, the TGI (LOX IMVI melanoma) was 37.9 µM and the TGI (CCRF-CEM leukemia) was 3.81 µM. The TGI (CAKI-1 renal) was > 87.4 µM, the TGI (UACC-62 melanoma) was 22.2 µM and the TGI (MDA-N) was > 100 µM. The TGI (U251 CNS) was 12.3 µM, the TGI (NCI-H23 lung) was > 77 µM and the TGI (HT29 colon) was > 86.5 µM. For the same compound, the TGI (DU-145 prostate) was > 100 µM, the TGI (TK-10 renal) was > 25.9 µM and the TGI (RXF 393 renal) was 40.1 µM. The TGI (OVCAR-3 ovarian) was 12.4 µM, the TGI (SR leukemia) was > 22.6 µM and the TGI (BT-549 breast) was > 93.4 µM. The TGI (RPMI-8226 leukemia) was 29.3 µM, the TGI (SK-MEL-28 melanoma) was > 100 µM and the TGI (HL-60(TB) leukemia) was 6.17 µM. For the same compound, the TGI (OVCAR-4 ovarian) was 31.9 µM, the TGI (SF-539 CNS) was 9.68 µM and the TGI (SNB-19 CNS) was > 100 µM. For the same compound, the TGI (HOP-62 NSCLC) was > 68.3 µM, the TGI (EKVX NSCLC) was 28.6 µM and the TGI (MCF7 breast) was > 100 µM. For the same compound, the TGI (MDA-MB-231 breast) was 16.4 µM, the TGI (ACHN renal) was 29.1 µM and the TGI (MOLT-4 leukemia) was > 25.4 µM. The TGI (SNB-75 CNS) was > 60.9 µM, the TGI (MALME-3M melanoma) was 22 µM and the TGI (HCT-116 colon) was 21.3 µM. The TGI (NCI/ADR-RES ovarian) was 8.73 µM, the TGI (SF-295 CNS) was > 30.3 µM and the TGI (M14 melanoma) was > 52.6 µM. The TGI (SK-MEL-5 melanoma) was 15.5 µM, the TGI (786-0 renal) was > 37.2 µM and the TGI (OVCAR-5 ovarian) was > 100 µM. For the same compound, the TGI (UACC-257 melanoma) was > 100 µM, the TGI (PC-3 prostate) was 30.3 µM and the TGI (T-47D breast) was > 31.6 µM. For the same compound, the TGI (SF-268 CNS) was 25.3 µM, the TGI (HOP-92 NSCLC) was 9.97 µM and the TGI (SN12C renal) was 17.4 µM. It also gave a TGI (A498 renal) of 54.8 µM.

`OC(c1cc(C(F)(F)F)nc2c(Cl)cc(Cl)cc12)C1CCCCN1` (stereo unspecified) was tested, and the TGI (UO-31 renal) was 3.22 µM, the TGI (OVCAR-8 ovarian) was 32.5 µM and the TGI (HCT-15 colon) was 27.4 µM. For the same compound, the TGI (MDA-MB-435) was 18.4 µM, the TGI (COLO 205 colon) was 9.29 µM and the TGI (A549 NSCLC) was > 52.2 µM. The TGI (IGROV1 ovarian) was 18.2 µM, the TGI (NCI-H522 lung) was > 21 µM and the TGI (NCI-H226 lung) was 35.1 µM. The TGI (SK-OV-3 ovarian) was 25.2 µM, the TGI (HCC-2998 colon) was > 100 µM and the TGI (SK-MEL-2 melanoma) was > 43.8 µM. The TGI (HS 578T breast) was > 48.4 µM, the TGI (K-562 leukemia) was > 34.1 µM and the TGI (SW-620 colon) was 19.2 µM. It also gave a TGI (KM12 colon) of 19.3 µM, a TGI (LOX IMVI melanoma) of 14.8 µM and a TGI (CCRF-CEM leukemia) of 4.08 µM. The TGI (CAKI-1 renal) was 21.2 µM, the TGI (UACC-62 melanoma) was > 47.7 µM and the TGI (MDA-N) was > 100 µM. For the same compound, the TGI (U251 CNS) was > 48.3 µM, the TGI (NCI-H23 lung) was 23.8 µM and the TGI (HT29 colon) was > 38.9 µM. The TGI (DU-145 prostate) was 20 µM, the TGI (TK-10 renal) was > 32.8 µM and the TGI (RXF 393 renal) was 18.8 µM. The TGI (OVCAR-3 ovarian) was 12.8 µM, the TGI (SR leukemia) was 5.32 µM and the TGI (NCI-H460 lung) was > 26.7 µM. It also gave a TGI (BT-549 breast) of 28.2 µM, a TGI (RPMI-8226 leukemia) of 9.19 µM and a TGI (SK-MEL-28 melanoma) of 29.5 µM. It also gave a TGI (HL-60(TB) leukemia) of 17.7 µM, a TGI (OVCAR-4 ovarian) of 18.3 µM and a TGI (SF-539 CNS) of 29.9 µM. For the same compound, the TGI (SNB-19 CNS) was > 52.3 µM, the TGI (HOP-62 NSCLC) was 18.5 µM and the TGI (EKVX NSCLC) was > 100 µM. The TGI (MCF7 breast) was > 25.8 µM, the TGI (MDA-MB-231 breast) was > 44.8 µM and the TGI (ACHN renal) was > 43.7 µM. The TGI (MOLT-4 leukemia) was 22.9 µM, the TGI (SNB-75 CNS) was 24.4 µM and the TGI (MALME-3M melanoma) was > 36.9 µM. The TGI (HCT-116 colon) was > 35.9 µM, the TGI (NCI/ADR-RES ovarian) was 30.2 µM and the TGI (SF-295 CNS) was 25.4 µM. For the same compound, the TGI (M14 melanoma) was > 44 µM, the TGI (SK-MEL-5 melanoma) was 22.6 µM and the TGI (786-0 renal) was > 38.1 µM. For the same compound, the TGI (OVCAR-5 ovarian) was > 50.4 µM, the TGI (UACC-257 melanoma) was > 38.8 µM and the TGI (PC-3 prostate) was > 43.1 µM. For the same compound, the TGI (T-47D breast) was 19 µM, the TGI (SF-268 CNS) was > 40.7 µM and the TGI (HOP-92 NSCLC) was 21.9 µM. The TGI (SN12C renal) was > 39.6 µM and the TGI (A498 renal) was > 51.4 µM.

In the case of `CC1C(c2ccccc2)N(C)C(c2ccccc2)C(C)C1(O)c1ccccc1` (stereo unspecified), the TGI (UO-31 renal) is reported as > 100 µM, the TGI (OVCAR-8 ovarian) is reported as > 100 µM and the TGI (HCT-15 colon) is reported as > 100 µM. For the same compound, the TGI (COLO 205 colon) was 58.7 µM, the TGI (A549 NSCLC) was > 100 µM and the TGI (IGROV1 ovarian) was > 100 µM. The TGI (NCI-H522 lung) was > 100 µM, the TGI (NCI-H226 lung) was > 100 µM and the TGI (SK-OV-3 ovarian) was > 100 µM. The TGI (HCC-2998 colon) was > 100 µM, the TGI (SK-MEL-2 melanoma) was > 100 µM and the TGI (K-562 leukemia) was > 100 µM. The TGI (SW-620 colon) was > 100 µM, the TGI (KM12 colon) was > 100 µM and the TGI (LOX IMVI melanoma) was > 100 µM. For the same compound, the TGI (CCRF-CEM leukemia) was > 100 µM, the TGI (CAKI-1 renal) was > 100 µM and the TGI (UACC-62 melanoma) was > 100 µM. The TGI (M19-MEL melanoma) was > 100 µM, the TGI (U251 CNS) was > 100 µM and the TGI (NCI-H23 lung) was > 100 µM. For the same compound, the TGI (HT29 colon) was > 100 µM, the TGI (TK-10 renal) was > 100 µM and the TGI (RXF 393 renal) was > 100 µM. The TGI (OVCAR-3 ovarian) was > 100 µM, the TGI (NCI-H460 lung) was > 100 µM and the TGI (SK-MEL-28 melanoma) was > 100 µM. The TGI (HL-60(TB) leukemia) was > 100 µM, the TGI (OVCAR-4 ovarian) was > 100 µM and the TGI (SF-539 CNS) was > 100 µM. For the same compound, the TGI (SNB-19 CNS) was > 100 µM, the TGI (HOP-62 NSCLC) was > 100 µM and the TGI (EKVX NSCLC) was > 100 µM. The TGI (ACHN renal) was > 100 µM, the TGI (MOLT-4 leukemia) was > 100 µM and the TGI (SNB-75 CNS) was > 100 µM. The TGI (MALME-3M melanoma) was > 100 µM, the TGI (HCT-116 colon) was > 100 µM and the TGI (DLD-1 colon) was > 100 µM. The TGI (LXFL 529 NSCLC) was > 100 µM, the TGI (SF-295 CNS) was > 100 µM and the TGI (KM20L2 colon) was > 100 µM. The TGI (M14 melanoma) was > 100 µM, the TGI (SK-MEL-5 melanoma) was > 100 µM and the TGI (786-0 renal) was > 100 µM. For the same compound, the TGI (OVCAR-5 ovarian) was > 100 µM, the TGI (DMS 273 small cell lung) was > 100 µM and the TGI (SNB-78 CNS) was > 100 µM. For the same compound, the TGI (UACC-257 melanoma) was > 100 µM, the TGI (DMS 114 small cell lung) was > 100 µM and the TGI (SF-268 CNS) was > 100 µM. For the same compound, the TGI (HOP-92 NSCLC) was > 100 µM, the TGI (SN12C renal) was > 100 µM and the TGI (A498 renal) was > 100 µM.
